The test has as its system NCI-H1975 (EGFR-L858R-T790M) cells. Kind of test: Inhibitory activity on proliferation of NCI-H1975 (EGFR-L858R-T790M) cells (CTG, 72 h). It counts as cell-based. Particulars: Homo sapiens. On the procedure:
NCI-H1975 (EGFR-L858R-T790M) and A431 (EGFR-WT) cells were purchased from ATCC and cultured in an incubator at 37° C. with 5% CO2, and the culture mediums were RPMI1640+10% FBS and DMEM+10% FBS, respectively. On the first day, NCI-H1975 (EGFR-L858R-T790M) and A431 (EGFR-WT) cells in the logarithmic phase were collected, and viable cells were counted using an automatic cell analyzer (countstar). The cell suspensions were adjusted with the culture mediums and plated on a 96-well cell culture plate at 1000 cells/well for NCI-H1975 (EGFR-L858R-T790M) cells and at 3000 cells/well for A431 cells. The next day, the culture mediums were aspirated, and 90 μL of fresh culture mediums and 10 μL of the compounds at different concentrations were added to each well, wherein the final concentration of DMSO in each well was 0.1%. The plate was cultured in the incubator at 37° C. with 5% CO2 for 72 hours. After 72 hours of drug treatment, 50 μL of CTG solution (promega, G7572), which was already pre-melted and equilibrated to room temperature, was added to each well, and the mixtures were uniformly mixed for 2 min using a microplate shaker. The plate was placed at room temperature for 10 min, and then […] signal values were measured using a microplate reader (PHERAstar FSX).
Surviving cells % was calculated based on Vsample/Vvehicle control×100%, wherein Vsample was the readout of the drug-treated group, and Vvehicle control was the average value of the vehicle control group. Using the origin 9.2 software and nonlinear regression model, S-shaped dose-survival curves were plotted, and IC50 values were calculated.

The mark [1] stands for this setting: read-out: IC50 (value in brackets).

Like-named read-outs stand apart in the source and are kept apart here.

By IC50 is commonly meant the midpoint of a concentration-inhibition curve. Consider `COc1cc(N2CCN(C3CCN(CC4CCN(c5ccc6c(c5)C(=O)N(C5CCC(=O)NC5=O)C6=O)CC4)CC3)CC2)c(-c2cnn(C)c2)cc1Nc1ncc(Br)c(Nc2ccc3nccnc3c2P(C)(C)=O)n1` (stereo not shown) [Compound 31, 5-(4-((4-(4-(4-((5-bromo-4-((5-(dimethylphosphoryl)quinoxalin-6-yl)amino)pyrimidin-2-yl)amino)-5-methoxy-2-(1-methyl-1H-pyrazol-4-yl)phenyl)piperazin-1-yl)piperidin-1-yl)methyl)piperidin-1-yl)-2-(2,6-dioxopiperidin-3-yl)isoindoline-1,3-dione], for which the IC50 was less than 100 nM (read-out: IC50 (class symbol)) and 15 nM under setting [1].
For `COc1cc(N2CCC3(CCN(CC4CCN(c5cc6c(cc5F)C(=O)N(C5CCC(=O)NC5=O)C6=O)CC4)CC3)CC2)c(-c2cnn(C)c2)cc1Nc1ncc(Cl)c(Nc2ccc3nccnc3c2P(C)(C)=O)n1` (stereo not shown) [Compound 27, 5-(4-((9-(4-((5-chloro-4-((5-(dimethylphosphoryl)quinoxalin-6-yl)amino)pyrimidin-2-yl)amino)-5-methoxy-2-(1-methyl-1H-pyrazol-4-yl)phenyl)-3,9-diazaspiro[5.5]undecan-3-yl)methyl)piperidin-1-yl)-2-(2,6-dioxopiperidin-3-yl)-6-fluoroisoindoline-1,3-dione], in that order: less than 100 nM and 20 nM.
For `COc1cc(N2CCC3(CCN(CC4CCN(c5cc6c(cc5F)C(=O)N(C5CCC(=O)NC5=O)C6=O)CC4)CC3)CC2)c(-c2cnn(C)c2)cc1Nc1ncc(Cl)c(Nc2ccc(-c3ccccc3)cc2P(C)(C)=O)n1` (stereo not shown) [Compound 51, 5-(4-((9-(4-((5-chloro-4-((3-(dimethylphosphoryl)-[1,1′-biphenyl]-4-yl)amino)pyrimidin-2-yl)amino)-5-methoxy-2-(1-methyl-1H-pyrazol-4-yl)phenyl)-3,9-diazaspiro[5.5]undecan-3-yl)methyl)piperidin-1-yl)-2-(2,6-dioxopiperidin-3-yl)-6-fluoroisoindoline-1,3-dione], in that order: less than 100 nM and 72 nM.
For `COc1cc(N2CCN(C[C@H]3CCN(c4ccc5c(c4)C(=O)N(C4CCC(=O)NC4=O)C5=O)C3)CC2)c(-c2cnn(C)c2)cc1Nc1ncc(Br)c(Nc2ccccc2P(C)(C)=O)n1` (stereo partly drawn) [Compound 122, 5-((R)-3-((4-(4-((5-bromo-4-((2-(dimethylphosphoryl)phenyl)amino)pyrimidin-2-yl)amino)-5-methoxy-2-(1-methyl-1H-pyrazol-4-yl)phenyl)piperazin-1-yl)methyl)pyrrolidin-1-yl)-2-(2,6-dioxopiperidin-3-yl)isoindoline-1,3-dione], in that order: less than 100 nM and 16 nM.
On to `COc1cc(N2CCN(C3CN(c4ccc5c(c4)C(=O)N(C4CCC(=O)NC4=O)C5=O)C3)CC2)c(-c2cnn(C)c2)cc1Nc1ncc(Br)c(Nc2ccccc2P(C)(C)=O)n1` (stereo not shown) [Compound 151, 5-(3-(4-(4-((5-bromo-4-((2-(dimethylphosphoryl)phenyl)amino)pyrimidin-2-yl)amino)-5-methoxy-2-(1-methyl-1H-pyrazol-4-yl)phenyl)piperazin-1-yl)azetidin-1-yl)-2-(2,6-dioxopiperidin-3-yl)isoindoline-1,3-dione], for which the IC50 is, setting by setting: (read-out: IC50 (class symbol)) less than 100 nM; under setting [1], 35 nM.
For `COc1cc(N2CCC(N3CCC(CN4CCN(c5ccc6c(c5)C(=O)N(C5CCC(=O)NC5=O)C6=O)CC4)CC3)CC2)c(-c2cnn(C)c2)cc1Nc1ncc(Br)c(Nc2ccc3nccnc3c2P(C)(C)=O)n1` (stereo not shown) [Trifluoroacetate of compound 19, 5-(4-((1′-(4-((5-bromo-4-((5-(dimethylphosphoryl)quinoxalin-6-yl)amino)pyrimidin-2-yl)amino)-5-methoxy-2-(1-methyl-1H-pyrazol-4-yl)phenyl)-[1,4′-bipiperidin]-4-yl)methyl)piperazin-1-yl)-2-(2,6-dioxopiperidin-3-yl)isoindoline-1,3-dione], in that order: less than 100 nM and 42 nM.
As for `COc1cc(N2CCC3(CCN(CC4CCN(c5ccc6c(c5)C(=O)N(C5CCC(=O)NC5=O)C6=O)CC4)CC3)CC2)c(-c2cnn(C)c2)cc1Nc1ncc(Br)c(Nc2ccc3nccnc3c2P(C)(C)=O)n1` (stereo not shown) [Trifluoroacetate of compound 20, 5-(4-((9-(4-((5-bromo-4-((5-(dimethylphosphoryl)quinoxalin-6-yl)amino)pyrimidin-2-yl)amino)-5-methoxy-2-(1-methyl-1H-pyrazol-4-yl)phenyl)-3,9-diazaspiro[5.5]undecan-3-yl)methyl)piperidin-1-yl)-2-(2,6-dioxopiperidin-3-yl)isoindoline-1,3-dione], the IC50 (read-out: IC50 (class symbol)) was less than 100 nM and the IC50 under setting [1] worked out at 14 nM.
For `COc1cc(N2CCC(CN3CCC4(CC3)CCN(c3ccc(C(=O)NC5CCC(=O)NC5=O)nc3)CC4)CC2)c(-c2cnn(C)c2)cc1Nc1ncc(Br)c(Nc2ccc(-c3ccccc3)cc2P(C)(C)=O)n1` (stereo not shown) [Compound 69, 5-(9-((1-(4-((5-bromo-4-((3-(dimethylphosphoryl)-[1,1′-biphenyl]-4-yl)amino)pyrimidin-2-yl)amino)-5-methoxy-2-(1-methyl-1H-pyrazol-4-yl)phenyl)piperidin-4-yl)methyl)-3,9-diazaspiro[5.5]undecan-3-yl)-N-(2,6-dioxopiperidin-3-yl)picolinamide], in that order: less than 100 nM and 34 nM.
For `COc1cc(N2CCN(c3ccc4c(c3)C(=O)N(C3CCC(=O)NC3=O)C4=O)CC2)c(-c2cnn(C)c2)cc1Nc1ncc(Br)c(Nc2ccccc2P(C)(C)=O)n1` (stereo not shown) [Compound 169, 5-(4-(4-((5-bromo-4-((2-(dimethylphosphoryl)phenyl)amino)pyrimidin-2-yl)amino)-5-methoxy-2-(1-methyl-1H-pyrazol-4-yl)phenyl)piperazin-1-yl)-2-(2,6-dioxopiperidin-3-yl)isoindoline-1,3-dione], in that order: 100 to 500 nM and 111 nM.
Turning to `COc1cc(N2CCC(CN3CCN(c4ccc(C(=O)NC5CCC(=O)NC5=O)nc4)CC3)CC2)c(-c2cnn(C)c2)cc1Nc1ncc(Br)c(Nc2ccc(-c3ccccc3)cc2P(C)(C)=O)n1` (stereo not shown) [Compound 64, 5-(4-((1-(4-((5-bromo-4-((3-(dimethylphosphoryl)-[1,1′-biphenyl]-4-yl)amino)pyrimidin-2-yl)amino)-5-methoxy-2-(1-methyl-1H-pyrazol-4-yl)phenyl)piperidin-4-yl)methyl)piperazin-1-yl)-N-(2,6-dioxopiperidin-3-yl)picolinamide], the IC50 is less than 100 nM (read-out: IC50 (class symbol)) and 82 nM under setting [1].
For `COc1cc(N2CCN(CC3CCN(c4ccc5c(c4)C(=O)N(C4CCC(=O)NC4=O)C5=O)CC3)CC2)c(-c2cnn(C)c2)cc1Nc1ncc(Cl)c(Nc2ccccc2P(C)(C)=O)n1` (stereo not shown) [Compound 128, 5-(4-((4-(4-((5-chloro-4-((2-(dimethylphosphoryl)phenyl)amino)pyrimidin-2-yl)amino)-5-methoxy-2-(1-methyl-1H-pyrazol-4-yl)phenyl)piperazin-1-yl)methyl)piperidin-1-yl)-2-(2,6-dioxopiperidin-3-yl)isoindoline-1,3-dione], in that order: less than 100 nM and 25 nM.
For the compound `COc1cc(N2CCC(N3CCC4(CCCN(c5ccc6c(c5)C(=O)N(C5CCC(=O)NC5=O)C6=O)C4)CC3)CC2)c(-c2cnn(C)c2)cc1Nc1ncc(Br)c(Nc2ccc3nccnc3c2P(C)(C)=O)n1` (stereo not shown) [Compound 32, 5-(9-(1-(4-((5-bromo-4-((5-(dimethylphosphoryl)quinoxalin-6-yl)amino)pyrimidin-2-yl)amino)-5-methoxy-2-(1-methyl-1H-pyrazol-4-yl)phenyl)piperidin-4-yl)-2,9-diazaspiro[5.5]undecan-2-yl)-2-(2,6-dioxopiperidin-3-yl)isoindoline-1,3-dione], the IC50 (read-out: IC50 (class symbol)) is less than 100 nM and the IC50 under setting [1] worked out at 10 nM.
For `COc1cc(N2CCN(CC3CCN(c4ccc5c(c4)C(=O)N(C4CCC(=O)NC4=O)C5=O)CC3)CC2)c(-c2cnn(C)c2)cc1Nc1ncc(Br)c(Nc2ccccc2P(C)(C)=O)n1` (stereo not shown) [Compound 127, 5-(4-((4-(4-((5-bromo-4-((2-(dimethylphosphoryl)phenyl)amino)pyrimidin-2-yl)amino)-5-methoxy-2-(1-methyl-1H-pyrazol-4-yl)phenyl)piperazin-1-yl)methyl)piperidin-1-yl)-2-(2,6-dioxopiperidin-3-yl)isoindoline-1,3-dione], in that order: less than 100 nM and 19 nM.
For `COc1cc(N2CCC(N3CCN(CC4CCN(c5cc6c(cc5F)C(=O)N(C5CCC(=O)NC5=O)C6=O)CC4)CC3)CC2)c(-c2cnn(C)c2)cc1Nc1ncc(Br)c(Nc2ccc3nccnc3c2P(C)(C)=O)n1` (stereo not shown) [Compound 29, 5-(4-((4-(1-(4-((5-bromo-4-((5-(dimethylphosphoryl)quinoxalin-6-yl)amino)pyrimidin-2-yl)amino)-5-methoxy-2-(1-methyl-1H-pyrazol-4-yl)phenyl)piperidin-4-yl)piperazin-1-yl)methyl)piperidin-1-yl)-2-(2,6-dioxopiperidin-3-yl)-6-fluoroisoindoline-1,3-dione], in that order: less than 100 nM and 33 nM.

These data come from patent US20240269298A1, “PHOSPHONYL DERIVATIVE, AND COMPOSITION AND PHARMACEUTICAL APPLICATION THEREOF” (XIZANG HAISCO PHARMACEUTICAL CO., LTD., priority 2021, published 2024).
